Assay results as given in the NIST ThermoML archive (doi:10.1016/j.jct.2005.05.015).
± gives the expanded uncertainty stated by the source.

Settings: Liquid, Twin ebulliometer

SMILES: CCCCC [pentane]
- vapor or sublimation pressure (309.32 K): 101.73 ± 0.076 kPa
- vapor or sublimation pressure (313.85 K): 118.39 ± 0.083 kPa
- vapor or sublimation pressure (320.2 K): 145.3 ± 0.093 kPa
- vapor or sublimation pressure (325.22 K): 169.71 ± 0.11 kPa
- vapor or sublimation pressure (330.84 K): 200.67 ± 0.12 kPa
- vapor or sublimation pressure (335.22 K): 227.66 ± 0.13 kPa
- vapor or sublimation pressure (339.51 K): 256.78 ± 0.14 kPa
- vapor or sublimation pressure (343.32 K): 284.81 ± 0.16 kPa
- vapor or sublimation pressure (346.78 K): 312.35 ± 0.17 kPa
- vapor or sublimation pressure (349.92 K): 338.98 ± 0.18 kPa
- vapor or sublimation pressure (353.48 K): 371.25 ± 0.19 kPa
- vapor or sublimation pressure (356.79 K): 403.22 ± 0.21 kPa
- vapor or sublimation pressure (360.01 K): 436.34 ± 0.22 kPa
- vapor or sublimation pressure (363.24 K): 471.57 ± 0.23 kPa
- vapor or sublimation pressure (366.37 K): 507.7 ± 0.25 kPa
- vapor or sublimation pressure (369.92 K): 551.11 ± 0.27 kPa
- vapor or sublimation pressure (377.19 K): 648.59 ± 0.29 kPa
- vapor or sublimation pressure (384.19 K): 754.18 ± 0.34 kPa
- vapor or sublimation pressure (392.52 K): 895.85 ± 0.37 kPa
- vapor or sublimation pressure (397.8 K): 995.29 ± 0.41 kPa
- vapor or sublimation pressure (402.59 K): 1092.4 ± 0.44 kPa
- vapor or sublimation pressure (406.87 K): 1185.1 ± 0.47 kPa
- vapor or sublimation pressure (412.57 K): 1317.5 ± 0.5 kPa
- vapor or sublimation pressure (416.13 K): 1405.5 ± 0.53 kPa
- vapor or sublimation pressure (417.87 K): 1450 ± 0.55 kPa
- vapor or sublimation pressure (420.09 K): 1508.6 ± 0.57 kPa
- vapor or sublimation pressure (423.75 K): 1608.9 ± 0.59 kPa
- vapor or sublimation pressure (424.62 K): 1633.2 ± 0.6 kPa
- vapor or sublimation pressure (427.09 K): 1704.4 ± 0.62 kPa
- vapor or sublimation pressure (430.44 K): 1804.8 ± 0.65 kPa
- vapor or sublimation pressure (430.68 K): 1812 ± 0.65 kPa
- vapor or sublimation pressure (433.61 K): 1903.7 ± 0.68 kPa
- vapor or sublimation pressure (437.57 K): 2033.2 ± 0.71 kPa
- vapor or sublimation pressure (440.81 K): 2143.7 ± 0.74 kPa
- vapor or sublimation pressure (443.59 K): 2242.6 ± 0.77 kPa
- vapor or sublimation pressure (446.65 K): 2355.2 ± 0.8 kPa
- vapor or sublimation pressure (449.18 K): 2451.9 ± 0.83 kPa
- vapor or sublimation pressure (451.9 K): 2559.3 ± 0.85 kPa
- vapor or sublimation pressure (451.99 K): 2562.8 ± 0.85 kPa
- vapor or sublimation pressure (454.33 K): 2658.6 ± 0.88 kPa
- vapor or sublimation pressure (455.99 K): 2727.7 ± 0.89 kPa
